Reference: patent EP2951180B1, “2,6,7,8 SUBSTITUTED PURINES AS HDM2 INHIBITORS” (Merck Sharp & Dohme Corp., priority 2013, dated 2014)

target: T1, HDM2 (Homo sapiens, UniProt Q00987); test: FRET assay (HDM2 inhibition; method not described in this part); type: binding; details: Table 1
T1 construct: Thioredoxin (N); made in house; host or cells: E. coli strain BL21(DE3)Rosetta
T1 sequence (Q00987 17-125): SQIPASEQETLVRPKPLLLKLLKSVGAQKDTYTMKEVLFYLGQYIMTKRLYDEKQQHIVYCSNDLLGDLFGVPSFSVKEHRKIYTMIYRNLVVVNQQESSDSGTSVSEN

`CCC(C)c1ccnc(-c2nc3nc(C(=O)O)nc(N[C@H](C)C4CCC4)c3n2Cc2ccc(C(F)(F)F)cc2)c1` (single isomer, unassigned) [Example 1.14] and `CC(C)c1ccnc(-c2nc3nc(C(=O)O)nc(N[C@H](C)C4CCC4)c3n2Cc2ccc(C(F)(F)F)cc2)c1` [Example 1.22] are within 1.5-fold of each other in IC50: 3.65 nM for the first, 4.22 nM for the second.

Compared with `CCC(C)c1ccnc(-c2nc3nc(C(=O)O)nc(N[C@H](C)C4CCC4)c3n2Cc2ccc(C(F)(F)F)cc2)c1` (single isomer, unassigned) [Example 1.15], `Cc1ccnc(-c2nc3nc(C(=O)O)nc(N[C@H](C)C4CCC4)c3n2Cc2ccc(C(F)(F)F)cc2)c1` [Example 1.17, 6-{[(1R)-1-cyclobutylethyl]amino}-8-(4-methylpyridin-2-yl)-7-[4-(trifluoromethyl)benzyl]-7H-purine-2-carboxylic acid] is 3.8-fold higher in IC50: 3.32 nM for the first, 12.7 nM for the second. The first is the more potent here.

Compared with `C[C@@H](Nc1nc(C(=O)O)nc2nc(-c3cc(N(C)C)ccc3OC(F)(F)F)n(Cc3ccc(C(F)(F)F)cc3)c12)C1CCC1` [Example 1.1, (R)-6-((1-cyclobutylethyl)amino)-8-(5-(dimethylamino)-2-(trifluoromethoxy)phenyl)-7-(4-(trifluoromethyl)benzyl)-7H-purine-2-carboxylic acid], `CCOc1ccc(C(C)C)cc1-c1nc2nc(C(=O)O)nc(N[C@H](C)C3CCC3)c2n1Cc1ccc(C(F)(F)F)cc1` [Example 1.12, (R)-6-((1-cyclobutylethyl)amino)-8-(2-ethoxy-5-isopropylphenyl)-7-(4-(trifluoromethyl)benzyl)-7H-purine-2-carboxylic acid] is 2.6-fold higher in IC50: 11.4 nM for the first, 29.4 nM for the second.

First: CCc1ccc(Cl)c(-c2nc3nc(C(=O)O)nc(N[C@H](C)C4CCC4)c3n2Cc2ccc(C(F)(F)F)cc2)c1 [Example 1.2, (R)-8-(2-chloro-5-ethylphenyl)-6-((1-cyclobutylethyl)amino)-7-(4-(trifluoromethyl)benzyl)-7H-purine-2-carboxylic acid]
Second: CC(C)c1ccc(O)c(-c2nc3nc(C(=O)O)nc(N[C@H](C)C4CCC4)c3n2Cc2ccc(C(F)(F)F)cc2)c1 [Example 1.11, (R)-6-((1-cyclobutylethyl)amino)-8-(2-hydroxy-5-isopropylphenyl)-7-(4-(trifluoromethyl)benzyl)-7H-purine-2-carboxylic acid]
The IC50 of the first is 2.1-fold lower: 23.7 nM for the first, 50.3 nM for the second.

Compared with `CC(C)c1ccc(OC(F)(F)F)c(-c2nc3nc(C(=O)O)nc(N[C@H](C)C4CCC4)c3n2Cc2ccc(C(F)(F)F)c(F)c2)c1` [Example 1.3, (R)-6-((1-cyclobutylethyl)amino)-7-(3-fluoro-4-(trifluoromethyl)benzyl)-8-(5-isopropyl-2-(trifluoromethoxy)phenyl)-7H-purine-2-carboxylic acid], `CC(C)c1cc(-c2nc3nc(C(=O)O)nc(N[C@H](C)C4CCC4)c3n2Cc2ccc(C(F)(F)F)cc2)ncc1F` [Example 1.10, (R)-6-((1-cyclobutylethyl)amino)-8-(5-fluoro-4-isopropylpyridin-2-yl)-7-(4-(trifluoromethyl)benzyl)-7H-purine-2-carboxylic acid] is 3.8-fold lower in IC50: 15.2 nM for the first, 3.96 nM for the second.

`CC(C)c1cc(-c2nc3nc(C(=O)O)nc(N[C@H](C)C4CCC4)c3n2Cc2ccc(C(F)(F)F)cc2)ccn1` [Example 1.4, (R)-6-((1-cyclobutylethyl)amino)-8-(2-isopropylpyridin-4-yl)-7-(4-(trifluoromethyl)benzyl)-7H-purine-2-carboxylic acid] and `Cc1cccnc1-c1nc2nc(C(=O)O)nc(N[C@H](C)C3CCC3)c2n1Cc1ccc(C(F)(F)F)cc1` [Example 1.18] are within 1.5-fold of each other in IC50: 58.8 nM for the first, 45.7 nM for the second.

`C=C(C)c1cc(C)nc(-c2nc3nc(C(=O)O)nc(N[C@H](C)C4CCC4)c3n2Cc2ccc(C(F)(F)F)cc2)c1` [Example 1.5, (R)-6-((1-cyclobutylethyl)amino)-8-(6-methyl-4-(prop-1-en-2-yl)pyridin-2-yl)-7-(4-(trifluoromethyl)benzyl)-7H-purine-2-carboxylic acid] and `Cc1cccc(-c2nc3nc(C(=O)O)nc(N[C@H](C)C4CCC4)c3n2Cc2ccc(C(F)(F)F)cc2)n1` [Example 1.19] are within 1.5-fold of each other in IC50: 50.2 nM for the first, 42.5 nM for the second.

Compared with `CC(C)c1ccnc(-c2nc3nc(C(=O)O)nc(N[C@H](C)C4CCC4)c3n2Cc2ccc(Cl)c(F)c2)c1` [Example 1.6, 7-(4-chloro-3-fluorobenzyl)-6-{[(1R)-1-cyclobutylethyl]amino}-8-[4-(propan-2-yl)pyridin-2-yl]-7H-purine-2-carboxylic acid], `CC(C)c1ccnc(-c2nc3nc(C(=O)O)nc(N[C@H](C)C4CCC4)c3n2Cc2ccc(C(F)(F)F)s2)c1` [Example 1.7, 6-{[(1R)-1-cyclobutylethyl]amino}-8-[4-(propan-2-yl)pyridin-2-yl]-7-{[5-(trifluoromethyl)thiophen-2-yl]methyl}-7H-purine-2-carboxylic acid] is 9.6-fold higher in IC50: 2.79 nM for the first, 26.9 nM for the second. The first is the more potent here.

Going from `C[C@@H](Nc1nc(C(=O)O)nc2nc(-c3cc(C(O)c4ccccc4)ccn3)n(Cc3ccc(C(F)(F)F)cc3)c12)C1CCC1` (stereo partly drawn) [Example 1.8, 6-(((R)-1-cyclobutylethyl)amino)-8-(4-(hydroxy(phenyl)methyl)pyridin-2-yl)-7-(4-(trifluoromethyl)benzyl)-7H-purine-2-carboxylic acid] to `C[C@@H](Nc1nc(C(=O)O)nc2nc(-c3cc(Cc4ccccc4)ccn3)n(Cc3ccc(C(F)(F)F)cc3)c12)C1CCC1` [Example 1.9, (R)-8-(4-benzylpyridin-2-yl)-6-((1-cyclobutylethyl)amino)-7-(4-(trifluoromethyl)benzyl)-7H-purine-2-carboxylic acid], the IC50 rises from 20.1 nM to 37.4 nM (1.9-fold).

First: CC(C)c1ccnc(-c2nc3nc(C(=O)O)nc(N(C)[C@H](C)C4CCC4)c3n2Cc2ccc(C(F)(F)F)c(F)c2)c1 [Example 1.13, (R)-6-((1-cyclobutylethyl)(methyl)amino)-7-(3-fluoro-4-(trifluoromethyl)benzyl)-8-(4-isopropylpyridin-2-yl)-7H-purine-2-carboxylic acid]
Second: C[C@@H](Nc1nc(C(=O)O)nc2nc(-c3ccccn3)n(Cc3ccc(C(F)(F)F)cc3)c12)C1CCC1 [Example 1.16, 6-{[(1R)-1-cyclobutylethyl]amino}-8-pyridin-2-yl-7-[4-(trifluoromethyl)benzyl]-7H-purine-2-carboxylic acid]
The IC50 of the first is 6.2-fold higher: 158 nM for the first, 25.3 nM for the second. The second is the more potent here.

Compared with `COc1ccc(-c2nc3nc(C(=O)O)nc(N[C@H](C)C4CCC4)c3n2Cc2ccc(C(F)(F)F)cc2)nc1` [Example 1.20, 6-{[(1R)-1-cyclobutylethyl]amino}-8-(5-methoxypyridin-2-yl)-7-[4-(trifluoromethyl)benzyl]-7H-purine-2-carboxylic acid], `COc1ccc(C)nc1-c1nc2nc(C(=O)O)nc(N[C@H](C)C3CCC3)c2n1Cc1ccc(C(F)(F)F)cc1` [Example 1.23, 6-{[(1R)-1-cyclobutylethyl]amino}-8-(3-methoxy-6-methylpyridin-2-yl)-7-[4-(trifluoromethyl)benzyl]-7H-purine-2-carboxylic acid] is 1.8-fold lower in IC50: 24.1 nM for the first, 13.1 nM for the second.

Compared with `Cc1ccc(C)c(-c2nc3nc(C(=O)O)nc(N[C@H](C)C4CCC4)c3n2Cc2ccc(C(F)(F)F)cc2)n1` [Example 1.21, 6-{[(1R)-1-cyclobutylethyl]amino}-8-(3,6-dimethylpyridin-2-yl)-7-[4-(trifluoromethyl)benzyl]-7H-purine-2-carboxylic acid], `C[C@@H](Nc1nc(C(=O)O)nc2nc(-c3ccc(S(C)(=O)=O)cc3)n(Cc3ccc(C(F)(F)F)cc3)c12)C1CCC1` [Example 1.24, 6-{[(1R)-1-cyclobutylethyl]amino}-8-[4-(methylsulfonyl)phenyl]-7-[4-(trifluoromethyl)benzyl] - 7H-purine-2-carboxylic acid] is 4.1-fold higher in IC50: 27 nM for the first, 112 nM for the second.

`Cc1cc2ncccc2cc1-c1nc2nc(C(=O)O)nc(N[C@H](C)C3CC3)c2n1Cc1ccc(C(F)(F)F)cc1` [Example 1.25, 6-{[(1R)-1-cyclopropylethyl]amino} -8-(7-methylquinolin-6-yl)-7-[4-(trifluoromethyl)benzyl]-7H-purine-2-carboxylic acid] was tested, and the IC50 was 1070 nM.

target: T1, HDM2; test: HDM2 FRET assay (inhibition of binding of FITC labeled p53-pocket peptide to HDM2); details: Table 25; read-out: FRET IC50
Summary of the method: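 Compounds were tested in 10-point serial dilution against 0.5 nM recombinant HDM2 binding 3 nM fluorescein-labeled p53-pocket peptide. Detection used 0.25 nM terbium cryptate anti-6xHis antibody in PBS buffer containing 0.01% BSA and 0.01% Tween-20.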

First: C[C@H]1CC[C@H](Cn2c(N3CCOC[C@H]3c3ccccc3)nc3nc(-c4noc(=O)[nH]4)nc(-n4cc(Cl)ccc4=O)c32)CC1 [Example 25.1, 5-chloro-1-{7-[(trans-4-methylcyclohexyl)methyl]-2-(5-oxo-4,5-dihydro-1,2,4-oxadiazol-3-yl)-8-[(3R)-3-phenylmorpholin-4-yl]-7H-purin-6-yl}pyridin-2(1H)-one]
Second: C[C@H]1CC[C@H](Cn2c(N3CCOC[C@H]3c3ccccc3)nc3nc(-c4noc(=O)[nH]4)nc(Oc4ccc(Cl)cn4)c32)CC1 [Example 25.2, 3-{6-[(5-chloropyridin-2-yl)oxy]-7-[(trans-4-methylcyclohexyl)methyl]-8-[(3R)-3-phenylmorpholin-4-yl]-7H-purin-2-yl}-1,2,4-oxadiazol-5(4H)-one]
The IC50 of the first is 15-fold lower: 1.01 nM for the first, 15.4 nM for the second. The first is the more potent here.

Compound `C[C@H]1CC[C@H](Cn2c(N3CCOC[C@H]3c3ccccc3)nc3nc(-c4n[nH]c(=O)o4)nc(Oc4ccc(Cl)cn4)c32)CC1` [Example 25.3, 5-{6-[(5-chloropyridin-2-yl)oxy]-7-[(trans-4-methylcyclohexyl)methyl]-8-[(3R)-3-phenylmorpholin-4-yl]-7H-purin-2-yl}-1,3,4-oxadiazol-2(3H)-one] has an IC50 of 20.1 nM.

same assay, conditions: Table 26; read-out: FRET IC50

Going from `C[C@@H]1COCCN1c1nc2nc(CC(=O)O)nc(-c3cccc(Cl)c3)c2n1C[C@H]1CC[C@H](C)CC1` [Example 26.2, {6-(3-chlorophenyl)-7-[(trans-4-methylcyclohexyl)methyl]-8-[(3R)-3-methylmorpholin-4-yl]-7H-purin-2-yl} acetic acid] to `CC1CN(c2nc(-c3noc(=O)[nH]3)nc3nc(N4CCOC[C@H]4c4ccccc4)n(C[C@H]4CC[C@H](C)CC4)c23)CCO1` (stereo partly drawn) [Example 26.3, 3-{7-[(trans-4-methylcyclohexyl)methyl]-6-(2-methylmorpholin-4-yl)-8-[(3R)-3-phenylmorpholin-4-yl]-7H-purin-2-yl}-1,2,4-oxadiazol-5(4H)-one], the IC50 falls from 783 nM to 14.5 nM (54-fold).
